Consider two molecules from patent US10478506B2, “Fucoidan nanogels and methods of their use and manufacture” (Memorial Sloan Kettering Cancer Center, priority 2014, dated 2019).

For assay [1], the system named is B16F10 melanoma lung metastases.
Description: A luciferase-expressing B16F10 melanoma lung metastasis model was used. The cells were injected into the tail vein at day 0. The FiDOX particles and controls were injected at day 7. The progression of metastasis was monitored with bioluminescence imaging after injection of luciferin. The bioluminescence images show the luciferase-expressing B16F10 cancer cells after injection of D-luciferin, 21 days after inoculation and 14 days after a single treatment.
FIG. 8 is a plot showing laboratory mouse survival curve data in the B16F10 melanoma lung metastasis model treated with a single injection of FiDOX nanoparticles, injected on day 7.
C57BL/6 mice were inoculated intravenously (i.v.) with 1×10^5B16-F10 cells on day 0 and the tumor was allowed to establish until day 7. In one experiment, mice were divided randomly into 5 groups and injected i.v. with FiDOX, Fi, DexDOX.
After treatment, mice were monitored up to 8 or 17 weeks, depending on the treatment received. At the end of the experiments, mice were sacrificed, their lungs were collected, and the number of surface-visible tumors was examined. The Kaplan-Meier method was used to evaluate survival.
The anti-tumor efficacy of P-selectin-targeted drug carrier nanoparticles was assessed against an aggressive experimental metastasis model. […]
Assay [2] deals with A375, SW620, LOVO and HCT116 xenografts. Briefly: Tumor xenografts in nude mice, tumor growth. The assay is classed as in vivo. As to conditions: single administration. How it is done: Six-week-old female athymic NU/NU nude mice were injected subcutaneously with 5×10^5 of A375, SW620, LOVO, and HCT116 in […] culture media/Matrigel at a 1:5 ratio. For cell-line-derived xenografts, animals were randomized at a tumor volume of 70 to 120 mm^3 to four to six groups, with n=8-10 tumors per group. […] Xenografts were measured with digital caliper, and tumor volumes were determined with the formula: […]. Animals were euthanized using CO2 inhalation. Tumor volumes are plotted as means±SEM. Mice were housed in air-filtered laminar flow cabinets with a 12-hr light/dark cycle and food and water ad libitum. […]

Turning to `COc1cccc2c1C(=O)c1c(O)c3c(c(O)c1C2=O)C[C@@](O)(C(=O)CO)C[C@@H]3O[C@H]1C[C@H](N)[C@H](O)[C@H](C)O1` [doxorubicin, (7S,9S)-7-[(2R,4S,5S,6S)-4-amino-5-hydroxy-6-methyloxan-2-yl]oxy-6,9,11-trihydroxy-9-(2-hydroxyacetyl)-4-methoxy-8,10-dihydro-7H-tetracene-5,12-dione], the survival entry in assay [1] (single injection on day 7) was “did not have a significant effect”. The tumor burden result in assay [1] (single injection, bioluminescence) is reported as “did not have a significant effect”. As for `Cn1cnc2c(F)c(Nc3ccc(Br)cc3F)c(C(=O)NOCCO)cc21` [MEK162, 6-(4-bromo-2-fluoroanilino)-7-fluoro-N-(2-hydroxyethoxy)-3-methylbenzimidazole-5-carboxamide], the tumor growth inhibition result in assay [2] is reported as “no effect”.
